Values joined by “and” are separate entries in the source; they are usually repeats but may differ in a detail not shown here. Identical values can stand only once.
Assays:
[1] = tested on: human umbilical vein endothelial cells (HUVEC); assay: HUVEC+VEGF proliferation assay; assay type: cell-based; details: Homo sapiens, HUVEC, 72 h, VEGF 6 ng/mL, MTT
Method: This assay determines the ability of a test compound to inhibit the growth factor-stimulated proliferation of human umbilical vein endothelial cells (“HUVEC”). HUVEC cells (passage 3-4, Clonetics, Corp.) were thawed into EGM2 culture medium (Clonetics Corp) in T75 flasks. Fresh EGM2 medium was added to the flasks 24 hours later. Four or five days later, cells were exposed to another culture medium (F12K medium supplemented with 10% fetal bovine serum (FBS), 60 μg/mL endothelial cell growth supplement (ECGS), and 0.1 mg/mL heparin). Exponentially-growing HUVEC cells were used in experiments thereafter. Ten to twelve thousand HUVEC cells were plated in 96-well dishes in 100 μl of rich, culture medium (described above). The cells were allowed to attach for 24 hours in this medium. The medium was then removed by aspiration and 105 μl of starvation media (F12K+1% FBS) was added to each well. After 24 hours, 15 μl of test agent dissolved in 1% DMSO in starvation medium or this vehicle alone was added into each treatment well; the final DMSO concentration was 0.1%. One hour later, 30 μl of VEGF (30 ng/mL) in starvation media was added to all wells except those containing untreated controls; the final VEGF concentration was 6 ng/mL. Cellular proliferation was quantified 72 hours later by MTT dye reduction, at which time cells were exposed for 4 hours MTT (Promega Corp.). Dye reduction was stopped by addition of a stop solution (Promega Corp.) and absorbance at 595 nm was determined on a 96-well spectrophotometer plate reader.

[2] = target: T1, PDGFRβ (Homo sapiens, UniProt P09619); assay: PAE-PDGFRβ phosphorylation in PAE-PDGFRB cells assay; assay type: cell-based; details: PAE cells overexpressing human PDGFRβ, PDGF-BB stimulated; read-out: PAE PDGFR autophos IC50
T1 construct: expressed in transfected cells; host or cells: porcine aorta endothelial (PAE) cells
Method: This assay determines the ability of a test compound to inhibit the autophosphorylation of PDGFRβ in porcine aorta endothelial (PAE)-PDGFRβ cells. PAE cells that overexpress human PDGFRβ were used in this assay. The cells were cultured in Ham's F12 media supplemented with 10% fetal bovine serum (FBS) and 400 ug/ml G418. Twenty thousands cells were seeded in each well of a 96-well plate in 50 μL of growth media and allowed to attach for 6 hours at 37° C. Cells were then exposed to the starvation media (Ham's F12 media supplemented with 0.1% FBS) for 16 hours. After the starvation period was over, 10 μL of test agent in 5% DMSO in starvation media were added to the test wells and 10 μL of the vehicle (5% DMSO in starvation media) were added into the control wells. The final DMSO concentration in each well was 0.5%. Plates were incubated at 37° C. for 1 hour and the cells were then stimulated with 1 μg/mL PDGF-BB (R & D System) in the presence of 2 mM Na3VO4 for 8 minutes. The cells were washed once with 1 mm Na3VO4 in HBSS and lysed by adding 50 μL per well of lysis buffer. One hundred μL of dilution buffer were then added to each well and the diluted cell lysate was transferred to a 96-well goat ant-rabbit coated plate (Pierce), which was pre-coated with Rabbit anti Human PDGFRβ antibody (Santa Cruz). The plates were incubated at room temperature for 2 hours and washed seven times with 1% Tween 20 in PBS. HRP-PY20 (Santa Cruz) was diluted and added to the plate for a 30-minute incubation. Plates were then washed again and TMB peroxidase substrate (Kirkegaard & Perry) was added for a 10-minute incubation. One hundred μL of 0.09 N H2SO4 was added into each well of the 96-well plate to stop the reaction. Phosphorylation status was assessed by spectrophotometer reading at 450 nm. IC50 values were calculated by curve fitting using a four-parameter analysis.

[3] = target: T2, unphosphorylated VEGF-R2Δ50 (FLVK) (Homo sapiens, UniProt P35968, DEL940-989/E990V); assay: VEGF-R2 coupled spectrophotometric assay, unphosphorylated construct (FLVK); assay type: biochemical; details: for inhibition at 0.05 µM: percent inhibition at 50 nM
T2 construct: VEGF-R2Δ50 contains residues 806-939 and 990-1171; made in house; host or cells: baculovirus/insect cell system
Source text: This construct determines the ability of a test compound to inhibit tyrosine kinase activity. A construct (VEGF-R2Δ50) of the cytosolic domain of human vascular endothelial growth factor receptor 2 (VEGF-R2) lacking the 50 central residues of the 68 residues of the kinase insert domain was expressed in a baculovirus/insect cell system. Of the 1356 residues of full-length VEGF-R2, VEGF-R2Δ50 contains residues 806-939 and 990-1171, and also one point mutation (E990V) within the kinase insert domain relative to wild-type VEGF-R2. Autophosphorylation of the purified construct was performed by incubation of the enzyme at a concentration of 4 μM in the presence of 3 mM ATP and 40 mM MgCl2 in 100 mM HEPES, pH 7.5, containing 5% glycerol and 5 mM DTT, at 4° C. for 2 h. […] See Parast et al., Biochemistry, 37, 16788-16801 (1998).
The production of ADP from ATP that accompanies phosphoryl transfer was coupled to oxidation of NADH using phosphoenolpyruvate (PEP) and a system having pyruvate kinase (PK) and lactic dehydrogenase (LDH). The oxidation of NADH was monitored by following the decrease of absorbance at 340 nm ([…]=6.22 cm^−1 mM^−1) using a Beckman DU 650 spectrophotometer. Assay conditions for phosphorylated VEGF-R2Δ50 (indicated as FLVK-P in the tables below) were the following: 1 mM PEP; 250 μM NADH; 50 units of LDH/mL; 20 units of PK/mL; 5 mM DTT; […]; 1 mM ATP; and 25 mM MgCl2 in 200 mM HEPES, pH 7.5. Assay conditions for unphosphorylated VEGF-R2Δ50 (indicated as FLVK in the tables) were the following: 1 mM PEP; 250 μM NADH; 50 units of LDH/mL; 20 units of PK/mL; 5 mM DTT; […]; 3 mM ATP; and 60 mM MgCl2 and 2 mM MnCl2 in 200 mM HEPES, pH 7.5. Assays were initiated with 5 to 40 nM of enzyme. Ki values were determined by measuring enzyme activity in the presence of varying concentrations of test compounds. The percent inhibition at 50 nm (% inhibition@ 50 nm) was determined by linear least-squares regression analysis of absorbance as a function of time. The binding inhibitions were fitted to equation as described by Morrison. The data were analyzed using Enzyme Kinetic and Kaleidagraph software.

T1 sequence (P09619 33-1106): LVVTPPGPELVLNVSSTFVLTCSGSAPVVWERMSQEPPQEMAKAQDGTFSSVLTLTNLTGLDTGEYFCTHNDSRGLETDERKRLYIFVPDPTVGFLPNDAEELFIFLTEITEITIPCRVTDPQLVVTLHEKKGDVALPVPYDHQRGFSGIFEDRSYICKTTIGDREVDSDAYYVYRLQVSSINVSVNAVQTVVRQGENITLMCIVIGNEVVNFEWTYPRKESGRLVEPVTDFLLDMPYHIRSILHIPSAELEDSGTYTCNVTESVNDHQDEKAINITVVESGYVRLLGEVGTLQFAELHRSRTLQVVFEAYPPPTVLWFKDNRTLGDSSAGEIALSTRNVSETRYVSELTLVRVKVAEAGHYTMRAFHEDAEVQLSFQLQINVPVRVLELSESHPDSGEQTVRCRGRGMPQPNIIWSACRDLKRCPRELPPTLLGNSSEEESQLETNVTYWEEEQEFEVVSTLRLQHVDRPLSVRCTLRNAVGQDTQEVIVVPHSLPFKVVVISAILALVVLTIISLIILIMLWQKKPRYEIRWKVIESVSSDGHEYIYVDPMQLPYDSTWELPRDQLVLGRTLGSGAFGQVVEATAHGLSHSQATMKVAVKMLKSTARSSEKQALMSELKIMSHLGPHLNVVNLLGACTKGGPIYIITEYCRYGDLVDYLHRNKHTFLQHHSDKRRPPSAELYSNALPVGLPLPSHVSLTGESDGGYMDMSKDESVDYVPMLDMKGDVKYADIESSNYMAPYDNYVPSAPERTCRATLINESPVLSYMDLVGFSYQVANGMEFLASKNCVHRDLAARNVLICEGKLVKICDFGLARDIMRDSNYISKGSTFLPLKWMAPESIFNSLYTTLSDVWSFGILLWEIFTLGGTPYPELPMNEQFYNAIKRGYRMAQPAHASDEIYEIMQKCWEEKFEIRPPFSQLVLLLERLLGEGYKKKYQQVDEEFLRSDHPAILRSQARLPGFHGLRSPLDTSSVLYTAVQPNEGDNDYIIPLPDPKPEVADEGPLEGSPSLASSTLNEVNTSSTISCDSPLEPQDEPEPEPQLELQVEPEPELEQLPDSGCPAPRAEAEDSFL
T2 sequence (P35968 with tags, fused parts or gaps DEL940-989/E990V limits assumed): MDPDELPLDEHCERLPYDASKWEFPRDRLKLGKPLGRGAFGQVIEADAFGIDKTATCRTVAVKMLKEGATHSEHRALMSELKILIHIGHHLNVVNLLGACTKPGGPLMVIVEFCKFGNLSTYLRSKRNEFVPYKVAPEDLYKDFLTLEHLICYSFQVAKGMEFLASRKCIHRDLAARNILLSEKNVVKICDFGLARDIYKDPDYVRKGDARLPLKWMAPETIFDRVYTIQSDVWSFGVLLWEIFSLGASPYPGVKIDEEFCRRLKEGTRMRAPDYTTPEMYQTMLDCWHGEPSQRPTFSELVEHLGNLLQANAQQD

Structure (SMILES) | IC50 [1] | IC50 [2] | Ki [3] | inhibition at 0.05 µM [3]
CNC(=O)n1c(C)cc2cc(Nc3ccnc4cc(C(=O)N5CC[C@H](OC)C5)sc34)ccc21 [Example 1g, 5-[2-(3S-Methoxy-pyrrolidine-1-carbonyl)-thieno[3,2-b]pyridin-7-ylamino]-2-methyl-indole-1-carboxylic acid methylamide] | 1 nM | 95 nM and 152 nM | – | –
C#CCNC(=O)n1c(C)cc2cc(Nc3ccnc4cc(C(=O)N5CC[C@H](O)C5)sc34)ccc21 [Example 1j, 5-[2-(3S-Hydroxy-pyrrolidine-1-carbonyl)-thieno[3,2-b]pyridin-7-ylamino]-2-methyl-indole-1-carboxylic acid prop-2-ynylamide] | 0.149 nM | – | 0.72 nM | 96%
CNC(=O)n1c(C)cc2cc(Nc3ccnc4cc(C(=O)N5C[C@H](OC)[C@@H](OC)C5)sc34)ccc21 [Example 1r, 5-[2-(3S,4S-Dimethoxy-pyrrolidine-1-carbonyl)-thieno[3,2-b]pyridin-7-ylamino]-2-methyl-indole-1-carboxylic acid methylamide] | 0.301 nM | 155 nM and 120 nM | 0.64 nM | 93%
Cc1cc2cc(Nc3ccnc4cc(C(=O)N5C[C@H](O)C[C@H]5C(C)(C)O)sc34)ccc2n1C(=O)NC1CC1 [Example 3e] | 4.9 nM | – | 2.1 nM | 87%
CNC(=O)n1c(C)cc2cc(Nc3cccc4cc(C(=O)N5C[C@H](O)C[C@H]5CO)sc34)ccc21 [Example 3i, 5-[2-((2S,4R)-4-Hydroxy-2-hydroxymethyl-pyrrolidine-1-carbonyl)-benzo[b]thiophen-7-ylamino]-2-methyl-indole-1-carboxylic acid methylamide] | 5.5 nM | – | 4.17 nM | 74%
CO[C@H]1CCN(C(=O)c2cc3nccc(Oc4ccc5c(c4)cc(C)n5C(=O)NCC#CC4CC4)c3s2)C1 [Example 4i, 5-[2-(3S-Methoxy-pyrrolidine-1-carbonyl)-thieno[3,2-b]pyridin-7-yloxy]-2-methyl-indole-1-carboxylic acid (3-cyclopropyl-prop-2-ynyl)-amide] | 0.569 nM | 5.5 nM | 1.56 nM | 97%
CO[C@@H]1CCN(C(=O)c2cc3nccc(Oc4ccc5c(c4)cc(C)n5C(=O)NCC#CC4CC4)c3s2)C1 [Example 4m, 5-[2-(3R-Methoxy-pyrrolidine-1-carbonyl)-thieno[3,2-b]pyridin-7-yloxy]-2-methyl-indole-1-carboxylic acid (3-cyclopropyl-prop-2-ynyl)-amide] | 0.37 nM | 3.8 nM | 0.271 nM | 99%
CNC(=O)n1c(C)cc2c(F)c(Oc3ccnc4cc(C(=O)N5CCC[C@H]5COC)sc34)ccc21 [Example 5a, 4-Fluoro-5-[2-(2S-methoxymethyl-pyrrolidine-1-carbonyl)-thieno[3,2-b]pyridin-7-yloxy]-2-methyl-indole-1-carboxylic acid methylamide] | 0.14 nM | 3.8 nM | 0.16 nM | 99%
CNC(=O)n1c(C)cc2c(F)c(Oc3ccnc4cc(C(=O)N5CC[C@H](O)C5)sc34)ccc21 [Example 5i, 4-Fluoro-5-[2-(3S-hydroxy-pyrrolidine-1-carbonyl)-thieno[3,2-b]pyridin-7-yloxy]-2-methyl-indole-1-carboxylic acid methylamide] | 0.11 nM | – | 0.525 nM | 97%
C#CCNC(=O)n1c(C)c(Cl)c2c(F)c(Oc3ccnc4cc(C(=O)N5CC[C@H](OC)C5)sc34)ccc21 [Example 6a, 3-Chloro-4-fluoro-5-[2-(3S-methoxy-pyrrolidine-1-carbonyl)-thieno[3,2-b]pyridin-7-yloxy]-2-methyl-indole-1-carboxylic acid prop-2-ynylamide] | 0.427 nM | 28.6 nM | 0.428 nM | 98%
